Earlier results in patent US20210236593A1, “METHODS OF SUPPORTING WEIGHT MAINTENANCE BY DECREASING THE ACTIVITY OF FAM46A” (SOCIETE DES PRODUITS NESTLE S.A., priority 2016, published 2021).
“Also recorded” adds a separate entry of the source. Structures can show the parent of a compound that is named as a salt.

Tested on: FAM46A
Settings: effect of the chemical on FAM46A expression

Row | SMILES | Interaction Actions
1 | CC(=O)Nc1ccc(O)cc1 [Acetaminophen, reference compound] | Affects expression
2 | c1ccc2c(c1)cc1ccc3cccc4ccc2c1c34 [Benzo(a)pyrene] | Decreases expression
3 | NC(=O)N1c2ccccc2C=Cc2ccccc21 [Carbamazepine, reference compound] | Affects expression
4 | O=C(NN=C1CCCCC1)C(=O)NN=C1CCCCC1 [Cuprizone, reference compound] | Decreases expression
5 | Nc1ccn([C@@H]2O[C@H](CO)[C@@H](O)[C@@H]2O)c(=O)n1 [Cytarabine, reference compound] | Decreases expression
6 | CCCCOC(=O)c1ccccc1C(=O)OCCCC [Dibutyl Phthalate] | Decreases expression
7 | CCOC(=O)/C=C\C(=O)OCC [Diethyl maleate] | Decreases expression
8 | CN(C)C(=O)Nc1ccc(Cl)c(Cl)c1 [Diuron] | Decreases expression
9 | Nc1ccccc1NC(=O)c1ccc(CNC(=O)OCc2cccnc2)cc1 [Entinostat, reference compound] | Decreases expression
10 | N#Cc1nn(-c2c(Cl)cc(C(F)(F)F)cc2Cl)c(N)c1[S+]([O-])C(F)(F)F (stereo not drawn) [Fipronil] | Decreases expression
11 | OO [Hydrogen Peroxide] | Affects expression; also recorded: Decreases expression
12 | Cc1oncc1C(=O)Nc1ccc(C(F)(F)F)cc1 [Leflunomide, reference compound] | Decreases expression
13 | [CH3][Hg][Cl] [Methylmercuric chloride] | Decreases expression
14 | CCc1nn(CCCN2CCN(c3cccc(Cl)c3)CC2)c(=O)n1CCOc1ccccc1 [Nefazodone, reference compound] | Decreases expression
15 | O=C(O)C(F)(F)C(F)(F)C(F)(F)C(F)(F)C(F)(F)C(F)(F)C(F)(F)C(F)(F)C(F)(F)C(F)(F)F [Perfluoro-n-undecanoic acid] | Decreases expression
16 | Cc1cccc(Nc2cc(Cl)nc(SCC(=O)O)n2)c1C [Pirinixic acid, reference compound] | Decreases expression
17 | Clc1cc2c(cc1Cl)Oc1cc(Cl)c(Cl)cc1O2 [Tetrachlorodibenzodioxin] | Decreases expression
18 | CC1=C(/C=C/C(C)=C/C=C/C(C)=C/C(=O)O)C(C)(C)CCC1 [Tretinoin, reference compound] | Decreases expression
19 | CC(/C=C/C(=O)NO)=C\[C@@H](C)C(=O)c1ccc(N(C)C)cc1 [Trichostatin A, reference compound] | Decreases expression
20 | CCCC(CCC)C(=O)O [Valproic Acid, reference compound] | Decreases expression
21 | C=CC1(C)OC(=O)N(c2cc(Cl)cc(Cl)c2)C1=O (stereo not drawn) [Vinclozolin] | Affects expression; also recorded: Decreases expression
